Laboratory results taken from US9415055B2, “Cyclic amines” (H. Lundbeck A/S, priority 2012, dated 2016).
pIC50: −log10 of the molar value.

Target: P2X7 receptor (Homo sapiens (Human), UniProt Q99572)
Test: P2X7 FLIPR assay: antagonism of BzATP response in 293 HEK cells stably expressing P2X7 receptor
Assay type: cell-based
Details: FLIPR fluorescence (Fluo-4), agonist BzATP, 293 HEK cells stably transfected with P2X7 receptor
Summary of the method: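 Antagonist IC50 derived from FLIPR Tetra Fluo-4 calcium signal evoked by BzATP. Compound pre-incubation was 30 min at room temperature on P2X7-expressing HEK293 cells, seeded 24 h before in low-serum medium and dye-loaded 30 min at 37 °C then 30 min at RT.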

Chain of P2X7 receptor (Q99572 whole entry): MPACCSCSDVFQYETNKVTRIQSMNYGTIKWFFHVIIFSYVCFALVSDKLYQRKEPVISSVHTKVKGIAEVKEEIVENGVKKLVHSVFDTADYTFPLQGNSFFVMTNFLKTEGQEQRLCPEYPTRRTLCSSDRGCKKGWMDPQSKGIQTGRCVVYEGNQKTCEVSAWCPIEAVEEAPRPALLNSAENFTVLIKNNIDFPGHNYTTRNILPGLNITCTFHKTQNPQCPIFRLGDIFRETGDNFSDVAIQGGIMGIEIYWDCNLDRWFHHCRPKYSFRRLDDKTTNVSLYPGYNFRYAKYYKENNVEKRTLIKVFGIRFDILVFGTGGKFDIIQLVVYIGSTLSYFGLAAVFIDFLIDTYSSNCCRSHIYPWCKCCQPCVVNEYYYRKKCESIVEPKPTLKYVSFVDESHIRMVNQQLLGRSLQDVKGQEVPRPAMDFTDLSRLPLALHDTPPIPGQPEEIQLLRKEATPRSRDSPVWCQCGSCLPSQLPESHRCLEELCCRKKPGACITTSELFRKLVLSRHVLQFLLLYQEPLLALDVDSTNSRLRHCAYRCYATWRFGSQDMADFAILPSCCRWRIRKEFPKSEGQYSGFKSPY

Point of comparison: `Cc1ncc(C(CNC(=O)c2c(Cl)cccc2Cl)N2CCC(F)CC2)cn1` (single isomer, unassigned; (-)) [(−)2,6-dichloro-N-[2-(4-fluoro-1-piperidyl)-2-(2-methylpyrim] [(−)2,6-dichloro-N-(2-(4-fluoropiperidin-1-yl)-2-(2-methylpyrimidin-5-yl)ethyl)benzamide], pIC50 7.28. Against it:
- COc1ccc(C(CNC(=O)c2cccc(Cl)c2Cl)N2CCCCC2)cc1 (stereo not drawn) [2,3-Dichloro-N-[2-(4-methoxy-phenyl)-2-piperidin-1-yl-ethyl]-benzamide] — 0.82 log units lower, 6.46
- CCc1ncc(C(CNC(=O)c2cccc(Cl)c2Cl)N2CCC(F)(F)CC2)cn1 (single isomer, unassigned; (-)) [(−)2,3-dichloro-N-[2-(4,4-difluoro-1-piperidyl)-2-(2-ethylpy] [(−)2,3-dichloro-N-(2-(4,4-difluoropiperidin-1-yl)-2-(2-ethylpyrimidin-5-yl)ethyl)benzamide] — 1.03 log units higher, 8.31
- COc1ccc(C(CNC(=O)c2ccccc2C)N2CCCCC2)cc1 (stereo not drawn) [N-[2-(4-Methoxy-phenyl)-2-piperidin-1-yl-ethyl]-2-methyl-benzamide] — 1.87 log units lower, 5.41
- O=C(NCC(c1ccc(Cl)cc1)N1CCCOCC1)c1cccc(Cl)c1Cl (stereo not drawn) [2,3-dichloro-N-(2-(4-chlorophenyl)-2-(1,4-oxazepan-4-yl)ethyl)benzamide] — 0.49 log units higher, 7.77
- COc1ccc(C(CNC(=O)c2cccc(Cl)c2Cl)N2CCC(F)(F)CC2)cc1 (stereo not drawn) [2,3-dichloro-N-[2-(4,4-difluoro-1-piperidyl)-2-(4-methoxyphenyl)ethyl]benzamide] — 1.94 log units higher, 9.22
- O=C(NCC(c1cnc(C(F)(F)F)nc1)N1CCC(F)(F)CC1)c1c(F)cccc1Cl (single isomer, unassigned; (-)) [(−)2-chloro-N-[2-(4,4-difluoro-1-piperidyl)-2-[2-(trifluorom] [(−)2-chloro-6-fluoro-N-(2-(4,4-difluoropiperidin-1-yl)-2-(trifluoromethyl)pyrimidin-5-yl)ethyl)benzamide] — 0.81 log units higher, 8.09
- CC1(C)CCN(C(CNC(=O)c2cccc(F)c2Cl)c2cnc(C(F)(F)F)nc2)CC1 (stereo not drawn) [2-chloro-N-[2-(4,4-dimethyl-1-piperidyl)-2-[2-(trifluoromethyl)pyrimidin-5-yl]ethyl]-3-fluoro-benzamide] — 1.84 log units lower, 5.44
- O=C(NCC(c1cnc(C2CC2)nc1)N1CCC(F)(F)CC1)c1cccc(Cl)c1Cl (single isomer, unassigned; (+)) [(+)2,3-dichloro-N-[2-(2-cyclopropylpyrimidin-5-yl)-2-(4,4-di] [(+)2,3-dichloro-N-(2-(2-cyclopropylpyrimidin-5-yl)-2-(4,4-difluoropiperidin-1-yl)ethyl)benzamide] — 1.09 log units higher, 8.37
- Cc1cccc(C(=O)NCC(c2ccc(F)cc2)N2CCOCC2)c1C (stereo not drawn) [N-[2-(4-Fluoro-phenyl)-2-morpholin-4-yl-ethyl]-2,3-dimethyl-benzamide] — 0.42 log units higher, 7.70
- O=C(NCC(c1ccc(Cl)cc1)N1CCCC1)c1cccc(Cl)c1Cl (stereo not drawn) [2,3-dichloro-N-(2-(4-chlorophenyl)-24 pyrrolidin-1-yl)ethyl)benzamide] — 1.54 log units lower, 5.74
- Cc1ncc(C(CNC(=O)c2ccccc2Cl)N2CCC(F)CC2)cn1 (single isomer, unassigned; (+)) [(+)2-chloro-N-[2-(4-fluoro-1-piperidyl)-2-(2-methylpyrimidin] [(+)2-chloro-N-(2-(4-fluoropiperidin-1-yl)-2-(2-methylpyrimidin-5-yl)ethyl)benzamide] — within 0.2 log units, 7.30
- Cc1ncc(C(CNC(=O)c2c(Cl)cccc2Cl)N2CCC(F)(F)CC2)cn1 (single isomer, unassigned; (-)) [(−)2,6-dichloro-N-[2-(4,4-difluoro-1-piperidyl)-2-(2-methylp] [(−)2,6-dichloro-N-(2-(4,4-difluoropiperidin-1-yl)-2-(2-methylpyrimidin-5-yl)ethyl)benzamide] — 0.38 log units higher, 7.66
- Cc1ncc(C(CNC(=O)c2ccccc2Cl)N2CCOCC2)cn1 (single isomer, unassigned; (+)) [(+)2-chloro-N-[2-(2-methylpyrimidin-5-yl)-2-morpholino-ethyl] [(+)2-chloro-N-(2-(2-methylpyrimidin-5-yl)-2-morpholinoethyl)benzamide] — 1.08 log units lower, 6.20
- Cc1ncc(C(CNC(=O)c2cccc(Cl)c2Cl)N2CCCCC2)cn1 (single isomer, unassigned; (+)) [(+)2,3-dichloro-N-[2-(2-methylpyrimidin-5-yl)-2-(1-piperidyl] [(+2,3-dichloro-N-(2-(2-methylpyrimidin-5-yl)-2-(piperidin-1-yl)ethyl)benzamide] — 0.77 log units higher, 8.05
- O=C(NCC(c1cnc(C2CC2)nc1)N1CCC(F)(F)CC1)c1ccccc1Cl (single isomer, unassigned; (+)) [(+)2-chloro-N-[2-(2-cyclopropylpyrimidin-5-yl)-2-(4,4-difluo] [(+)2-chloro-N-(2-(2-cyclopropylpyrimidin-5-yl)-2-(4,4-difluoropiperidin-1-yl)ethyl)benzamide] — 1.24 log units higher, 8.52
- O=C(NCC(c1cnc(C(F)(F)F)nc1)N1CCOCC1)c1cccc(C(F)(F)F)c1Cl (single isomer, unassigned; (+)) [(+)2-chloro-N-[2-morpholino-2-[2-(trifluoromethyl)pyrimidin-] [(+)2-Chloro-N-[2-morpholino-2-[2-(trifluoromethyl)pyrimidin-5-yl]ethyl]-3-(trifluoromethyl)benzamide] — 0.49 log units higher, 7.77
- O=C(NCC(c1ccc(C(F)(F)F)nc1)N1CCOCC1)c1cccc(Cl)c1Cl (single isomer, unassigned; (-)) [(−)2,3-dichloro-N-[2-morpholino-2-[6-(trifluoromethyl)-3-pyr] [(−)2,3-Dichloro-N-[2-morpholino-2-[6-(trifluoromethyl)-3-pyridyl]ethyl]benzamide] — 1.42 log units higher, 8.70
- O=C(NCC(c1ccc(C(F)(F)F)nc1)N1CCC(F)(F)CC1)c1c(F)cccc1Cl (single isomer, unassigned; (-)) [(−)2-chloro-N-[2-(4,4-difluoro-1-piperidyl)-2-[6-(trifluorom] [(−)2-chloro-6-fluoro-N-(2-(4,4-difluoropiperidin-1-yl)-2-(trifluoromethyl)pyridin-5-yl)ethyl)benzamide] — 1.24 log units higher, 8.52
- COc1ccccc1C(=O)NCC(c1ccc(C(F)(F)F)nc1)N1CCOCC1 (single isomer, unassigned; (-)) [(−)2-methoxy-N-[2-morpholino-2-[6-(trifluoromethyl)-3-pyridy] [(−)2-Methoxy-N-[2-morpholin-4-yl-2-(6-trifluoromethyl-pyridin-3-yl)-ethyl]-benzamide] — 0.40 log units higher, 7.68
- Cc1ncc(C(CNC(=O)c2cccc(Cl)c2Cl)N2CCC(F)(F)CC2)cn1 (single isomer, unassigned; (+)) [(+)2,3-dichloro-N-[2-(4,4-difluoro-1-piperidyl)-2-(2-methylp] [(+)2,3-dichloro-N-(2-(4,4-difluoropiperidin-1-yl)-2-(2-methylpyrimidin-5-yl)ethyl)benzamide] — 1.21 log units higher, 8.49
- CCc1ncc(C(CNC(=O)c2c(Cl)cccc2Cl)N2CCC(F)(F)CC2)cn1 (single isomer, unassigned; (-)) [(−)2,6-dichloro-N-[2-(4,4-difluoro-1-piperidyl)-2-(2-ethylpy] [(−)2,6-dichloro-N-(2-(4,4-difluoropiperidin-1-yl)-2-(2-ethylpyrimidin-5-yl)ethyl)benzamide] — 0.29 log units higher, 7.57
- Cc1ncc(C(CNC(=O)c2c(F)cccc2Cl)N2CCCOCC2)cn1 (stereo not drawn) [2-chloro-6-fluoro-N-(2-(2-methylpyrimidin-5-yl)-2-(1,4-oxazepan-4-yl)ethyl)benzamide] — 1.19 log units lower, 6.09
- COc1ccc(C(=O)NCC(c2cnc(C(F)(F)F)nc2)N2CCC(F)(F)CC2)c(Cl)c1 (single isomer, unassigned; (-)) [(−)2-chloro-N-[2-(4,4-difluoro-1-piperidyl)-2-[2-(trifluorom] [(−)2-chloro-4-methoxy-N-(2-(4,4-difluoropiperidin-1-yl)-2-(2-(trifluoromethyl)pyrimidin-5-yl)ethyl)benzamide] — 1.38 log units higher, 8.66
- O=C(NCC(c1cnc(C(F)(F)F)nc1)N1CCC(F)(F)CC1)c1ccccc1Cl (stereo not drawn) [2-chloro-N-(2-(4,4-difluoropiperidin-1-yl)-2-(2-(trifluoromethyl)pyrimidin-5-yl)ethyl)benzamide] — 1.27 log units higher, 8.55
- COc1cccc(C(=O)NCC(c2cnc(C(F)(F)F)nc2)N2CCOCC2)c1Cl (single isomer, unassigned; (+)) [(+)2-chloro-3-methoxy-N-[2-morpholino-2-[2-(trifluoromethyl)] [(+)2-chloro-3-methoxy-N-(2-morpholino-2-(2-(trifluoromethyl)pyrimidin-5-yl)ethyl)benzamide] — 0.52 log units higher, 7.80
- O=C(NCC(c1ccc(C(F)(F)F)nc1)N1CCOCC1)c1c(F)cccc1F (single isomer, unassigned; (-)) [(−)2,6-difluoro-N-[2-morpholino-2-[6-(trifluoromethyl)-3-pyr] [(−)2,6-difluoro-N-(2-morpholino-2-(6-(trifluoromethyl)pyridin-3-yl)ethyl)benzamide] — 0.96 log units lower, 6.32
- O=C(NCC(c1cnc(C(F)(F)F)nc1)N1CCOCC1)c1ccc(Cl)cc1Cl (stereo not drawn) [2,4-dichloro-N-(2-morpholino-2-(2-(trifluoromethyl)pyrimidin-5-yl)ethyl)benzamide] — 0.64 log units higher, 7.92
- O=C(NCC(c1cnc(C(F)(F)F)nc1)N1CCC(F)CC1)c1c(Cl)cccc1Cl (single isomer, unassigned; (+)) [(+)2,6-dichloro-N-[2-(4-fluoro-1-piperidyl)-2-[2-(trifluorom] [(+)2,6-dichloro-N-(2-(4-fluoropiperidin-1-yl)-2-(2-(trifluoromethyl)pyrimidin-5-yl)ethyl)benzamide] — 0.93 log units higher, 8.21
- Cc1ncc(C(CNC(=O)c2ccccc2Cl)N2CCC(F)(F)CC2)cn1 (single isomer, unassigned; (+)) [(+)2-chloro-N-[2-(4,4-difluoro-1-piperidyl)-2-(2-methylpyrim] [(+)2-chloro-N-[2-(4,4-difluoro-1-piperidyl)-2-(2-methylpyrimidin-5-yl)ethyl]benzamide] — 0.61 log units higher, 7.89
